Data as given in patent US9920032B2, “Heterocyclic compounds useful as pim kinase inhibitors” (Incyte Corporation, priority 2015, dated 2018).

How the values were obtained:
Type in all cases: biochemical
[1] = target: Pim-1 (Homo sapiens (Human), UniProt P11309); assay: Pim-1 kinase assay; settings: 1 mM ATP; read-out: PIM1 IC50
Outline: (§1)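 Enzyme at 2.5 pM (Pim-1) or 1.25 pM (Pim-3) reacted 1 h at 25° C with 1 mM ATP and 0.05 μM biotinylated BAD peptide, pH 7.5. Phospho-Ser112 BAD detected by antibody/Protein-A acceptor and streptavidin donor bead proximity signal after EDTA quench and 1 h dark incubation.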

[2] = target: Pim-2 (Homo sapiens (Human), UniProt Q9P1W9); assay: Pim-2 kinase assay; settings: 1 mM ATP; read-out: PIM2 IC50
Pim-2, sequence (Q9P1W9 whole entry): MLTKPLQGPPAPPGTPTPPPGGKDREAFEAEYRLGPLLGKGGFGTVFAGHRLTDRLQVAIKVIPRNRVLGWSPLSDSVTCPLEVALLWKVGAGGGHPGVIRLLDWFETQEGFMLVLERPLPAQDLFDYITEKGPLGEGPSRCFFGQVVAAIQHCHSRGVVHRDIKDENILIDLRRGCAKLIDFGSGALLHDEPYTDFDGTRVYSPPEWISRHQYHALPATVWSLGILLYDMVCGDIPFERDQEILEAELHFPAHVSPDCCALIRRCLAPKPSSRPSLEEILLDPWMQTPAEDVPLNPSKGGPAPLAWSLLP
Outline: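 TR-FRET assay with 1 nM enzyme, 0.05 μM fluorescein-CREBtide and 1 mM ATP in Tris pH 7.5 buffer with MgCl2, DTT, BSA and Tween-20, run 2 h at 25° C. Stopped with EDTA and Tb-labelled anti-CREB pSer133 antibody, then read after 30 min at room temperature.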

[3] = target: Pim-3 (Homo sapiens (Human), UniProt Q86V86); assay: Pim-3 kinase assay; settings: 1 mM ATP; read-out: PIM3 IC50
Outline: as §1

Pim-1, sequence (P11309 whole entry): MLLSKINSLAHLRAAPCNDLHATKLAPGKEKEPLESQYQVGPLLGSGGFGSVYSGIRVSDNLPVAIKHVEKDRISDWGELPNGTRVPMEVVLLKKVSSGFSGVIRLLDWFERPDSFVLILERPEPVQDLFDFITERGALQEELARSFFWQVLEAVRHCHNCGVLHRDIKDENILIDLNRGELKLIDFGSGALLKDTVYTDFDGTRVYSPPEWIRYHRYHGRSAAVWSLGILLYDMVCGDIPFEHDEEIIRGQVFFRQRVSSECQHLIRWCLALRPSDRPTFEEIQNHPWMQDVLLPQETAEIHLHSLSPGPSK

`C[C@@H]1C[C@H](N)C[C@H](c2ccncc2NC(=O)c2ccc(F)c3cc(N4CC[C@@H](F)C4)cnc23)C1` [Example 6, N-{4-[(1R,3S,5S)-3-Amino-5-methylcyclohexyl]pyridin-3-yl}-5-fluoro-3-[(3R)-3-fluoropyrrolidin-1-yl]quinoline-8-carboxamide] was tested, and the IC50 [1] was no more than 10 nM, the IC50 [2] was no more than 100 nM and the IC50 [3] was no more than 10 nM.

Work on `CCc1cnc2c(C(=O)Nc3cnccc3[C@@H]3C[C@H](C)C[C@H](N)C3)ccc(F)c2c1` [Example 1, N-{4-[(1R,3S,5S)-3-Amino-5-methylcyclohexyl]pyridin-3-yl}-3-ethyl-5-fluoroquinoline-8-carboxamide] yielded an IC50 [1] of no more than 10 nM, an IC50 [2] of 100 to 1000 nM and an IC50 [3] of no more than 10 nM.

`COC[C@H]1CCCN1c1cnc2c(C(=O)Nc3cnccc3[C@@H]3C[C@H](C)C[C@H](N)C3)ccc(F)c2c1` [Example 47, N-(4-((1R,3S,5S)-3-Amino-5-methylcyclohexyl)pyridin-3-yl)-5-fluoro-3-OR)-2-(methoxymethyl)pyrrolidin-1-yl)quinoline-8-carboxamide] showed an IC50 [1] of no more than 10 nM, an IC50 [2] of no more than 100 nM and an IC50 [3] of no more than 10 nM.

In the case of `C[C@@H]1C[C@H](N)C[C@H](c2ccncc2NC(=O)c2ccc(F)c3cc(N4CCN(C(=O)N(C)C)CC4)cnc23)C1` [Example 82, N-(4-((1R,3S,5S)-3-Amino-5-methylcyclohexyl)pyridin-3-yl)-3-(4-(dimethylcarbamoyl)piperazin-1-yl)-5-fluoroquinoline-8-carboxamide], the IC50 [1] is reported as no more than 10 nM, the IC50 [2] is reported as 100 to 1000 nM and the IC50 [3] is reported as no more than 10 nM.

In the case of `COCCN1CCN(c2cnc3c(C(=O)Nc4cnccc4[C@@H]4C[C@H](C)C[C@H](N)C4)ccc(F)c3c2)CC1=O` [Example 133, N-(4-((1R,3S,5S)-3-Amino-5-methylcyclohexyl)pyridin-3-yl)-5-fluoro-3-(4-(2-methoxyethyl)-3-oxopiperazin-1-yl)quinoline-8-carboxamide], the IC50 [1] is reported as no more than 10 nM, the IC50 [2] is reported as 100 to 1000 nM and the IC50 [3] is reported as no more than 10 nM.

`C[C@@H]1C[C@H](N)C[C@H](c2ccncc2NC(=O)c2ccc(F)c3cc(N4CC[C@H](F)C4)cnc23)C1` [Example 5, N-{4-[(1R,3S,5S)-3-Amino-5-methylcyclohexyl]pyridin-3-yl}-5-fluoro-3-[(3S)-3-fluoropyrrolidin-1-yl]quinoline-8-carboxamide] showed an IC50 [1] of no more than 10 nM, an IC50 [2] of no more than 100 nM and an IC50 [3] of no more than 10 nM.

`C[C@@H]1C[C@H](N)C[C@H](c2ccncc2NC(=O)c2ccc(F)c3cc(N4CC5COCC5C4)cnc23)C1` (stereo partly drawn) [Example 110, N-(4-((1R,3S,5S)-3-Amino-5-methylcyclohexyl)pyridin-3-yl)-3-(dihydro-1H-furo[3,4-c]pyrrol-5(3H,6H,6aH)-yl)-5-fluoroquinoline-8-carboxamide] was tested, and the IC50 [1] was no more than 10 nM, the IC50 [2] was no more than 100 nM and the IC50 [3] was no more than 10 nM.

`C[C@@H]1C[C@H](N)C[C@H](c2ccncc2NC(=O)c2ccc(F)c3cc(N4CC[C@H](O)[C@@H](F)C4)cnc23)C1` [Example 108, N-(4-((1R,3S,5S)-3-Amino-5-methylcyclohexyl)pyridin-3-yl)-5-fluoro-3-((3S,4S)-3-fluoro-4-hydroxypiperidin-1-yl)quinoline-8-carboxamide] showed an IC50 [1] of no more than 10 nM, an IC50 [2] of no more than 100 nM and an IC50 [3] of no more than 10 nM.

`C[C@@H]1C[C@H](N)C[C@H](c2ccncc2NC(=O)c2ccc(F)c3cc(N4CCCC4)cnc23)C1` [Example 3, N-{4-[(1R,3S,5S)-3-Amino-5-methylcyclohexyl]pyridin-3-yl}-5-fluoro-3-pyrrolidin-1-ylquinoline-8-carboxamide] was tested, and the IC50 [1] was no more than 10 nM, the IC50 [2] was 100 to 1000 nM and the IC50 [3] was 10 to 50 nM.

`C[C@@H]1C[C@H](N)C[C@H](c2ccncc2NC(=O)c2cccc3cc(N(C)CC(F)F)cnc23)C1` [Example 72, N-(4-((1R,3S,5S)-3-Amino-5-methylcyclohexyl)pyridin-3-yl)-3-((2,2-difluoroethyl)(methyl)amino)quinoline-8-carboxamide] gave an IC50 [1] of no more than 10 nM, an IC50 [2] of 100 to 1000 nM and an IC50 [3] of no more than 10 nM.

`CO[C@H]1CCN(c2cnc3c(C(=O)Nc4cnccc4[C@@H]4C[C@H](C)C[C@H](N)C4)ccc(F)c3c2)C1` [Example 50, N-(4-((1R,3S,5S)-3-Amino-5-methylcyclohexyl)pyridin-3-yl)-5-fluoro-3-((S)-3-methoxypyrrolidin-1-yl)quinoline-8-carboxamide] showed an IC50 [1] of no more than 10 nM, an IC50 [2] of no more than 100 nM and an IC50 [3] of no more than 10 nM.

`C[C@@H]1C[C@H](N)C[C@H](c2ccncc2NC(=O)c2ccc(F)c3cc(N4CCC(C#N)CC4)cnc23)C1` [Example 45, N-(4-((1R,3S,5S)-3-Amino-5-methylcyclohexyl)pyridin-3-yl)-3-(4-cyanopiperidin-1-yl)-5-fluoroquinoline-8-carboxamide] gave an IC50 [1] of no more than 10 nM, an IC50 [2] of 100 to 1000 nM and an IC50 [3] of 10 to 50 nM.

For `COC1CCCN(c2cnc3c(C(=O)Nc4cnccc4[C@@H]4C[C@H](C)C[C@H](N)C4)ccc(F)c3c2)CC1` (stereo partly drawn) [Example 101, N-(4-((1R,3S,5S)-3-Amino-5-methylcyclohexyl)pyridin-3-yl)-5-fluoro-3-(4-methoxyazepan-1-yl)quinoline-8-carboxamide], the IC50 [1] was no more than 10 nM, the IC50 [2] was no more than 100 nM and the IC50 [3] was no more than 10 nM.

Work on `CO[C@@H]1CCN(c2cnc3c(C(=O)Nc4cnccc4[C@@H]4C[C@H](C)C[C@H](N)C4)ccc(F)c3c2)C1` [Example 49, N-(4-((1R,3S,5S)-3-amino-5-methylcyclohexyl)pyridin-3-yl)-5-fluoro-3-((R)-3-methoxypyrrolidin-1-yl)quinoline-8-carboxamide] yielded an IC50 [1] of no more than 10 nM, an IC50 [2] of 100 to 1000 nM and an IC50 [3] of no more than 10 nM.

With `C[C@@H]1C[C@H](N)C[C@H](c2ccncc2NC(=O)c2ccc(F)c3cc(N(C)CC(F)(F)F)cnc23)C1` [Example 21, N-{4-[(1R,3S,5S)-3-Amino-5-methylcyclohexyl]pyridin-3-yl}-5-fluoro-3-[methyl(2,2,2-trifluoroethyl)amino]quinoline-8-carboxamide] the IC50 [1] was no more than 10 nM, the IC50 [2] was no more than 100 nM and the IC50 [3] was no more than 10 nM.

In the case of `C[C@@H]1C[C@H](N)C[C@H](c2ccncc2NC(=O)c2ccc(F)c3cc(N4CCN5C(=O)CCC5C4)cnc23)C1` (stereo partly drawn) [Example 84, N-(4-((1R,3S,5S)-3-Amino-5-methylcyclohexyl)pyridin-3-yl)-5-fluoro-3-(6-oxohexahydropyrrolo[1,2-a]pyrazin-2(1H)-yl)quinoline-8-carboxamide], the IC50 [1] is reported as no more than 10 nM, the IC50 [2] is reported as 100 to 1000 nM and the IC50 [3] is reported as no more than 10 nM.

`C[C@@H]1C[C@H](N)C[C@H](c2ccncc2NC(=O)c2ccc(F)c3cc(N4CCCN(C)S4(=O)=O)cnc23)C1` [Example 128, N-(4-((1R,3S,5S)-3-Amino-5-methylcyclohexyl)pyridin-3-yl)-5-fluoro-3-(6-methyl-1,1-dioxido-1,2,6-thiadiazinan-2-yl)quinoline-8-carboxamide] was tested, and the IC50 [1] was no more than 10 nM, the IC50 [2] was no more than 100 nM and the IC50 [3] was no more than 10 nM.

Compound `C[C@@H]1C[C@H](N)C[C@H](c2ccncc2NC(=O)c2ccc(F)c3cc(N4CCCCO4)cnc23)C1` [Example 109, N-(4-((1R,3S,5S)-3-amino-5-methylcyclohexyl)pyridin-3-yl)-5-fluoro-3-(1,2-oxazinan-2-yl)quinoline-8-carboxamide] has an IC50 [1] of no more than 10 nM, an IC50 [2] of no more than 100 nM and an IC50 [3] of no more than 10 nM.

Compound `C[C@@H]1C[C@H](N)C[C@H](c2ccncc2NC(=O)c2ccc(F)c3cc(N4CCC[C@@H](C)C4)cnc23)C1` [Example 105, N-(4-((1R,3S,5S)-3-Amino-5-methylcyclohexyl)pyridin-3-yl)-5-fluoro-3-((R)-3-methylpiperidin-1-yl)quinoline-8-carboxamide] has an IC50 [1] of no more than 10 nM, an IC50 [2] of no more than 100 nM and an IC50 [3] of no more than 10 nM.

Work on `C[C@@H]1C[C@H](N)C[C@H](c2ccncc2NC(=O)c2ccc(F)c3cc(N4CC5CC(C4)O5)cnc23)C1` [Example 81, N-(4-((1R,3S,5S)-3-Amino-5-methylcyclohexyl)pyridin-3-yl)-3-(6-oxa-3-azabicyclo[3.1.1]heptan-3-yl)-5-fluoroquinoline-8-carboxamide] yielded an IC50 [1] of no more than 10 nM, an IC50 [2] of no more than 100 nM and an IC50 [3] of no more than 10 nM.

`C[C@@H]1C[C@H](N)C[C@H](c2ccncc2NC(=O)c2cccc3cc(N4CCC[C@H]4C)cnc23)C1` [Example 68, N-(4-((1R,3S,5S)-3-Amino-5-methylcyclohexyl)pyridin-3-yl)-3-((R)-2-methylpyrrolidin-1-yl)quinoline-8-carboxamide] gave an IC50 [1] of no more than 10 nM, an IC50 [2] of no more than 100 nM and an IC50 [3] of no more than 10 nM.

Work on `C[C@@H]1C[C@H](N)C[C@H](c2ccncc2NC(=O)c2ccc(F)c3cc(-c4ccc(F)c5cccnc45)cnc23)C1` [Example 60, N-(4-((1R,3S,5S)-3-Amino-5-methylcyclohexyl)pyridin-3-yl)-5,5′-difluoro-3,8′-biquinoline-8-carboxamide] yielded an IC50 [1] of no more than 10 nM, an IC50 [2] of 1000 to 10000 nM and an IC50 [3] of 10 to 50 nM.

`C[C@@H]1C[C@H](N)C[C@H](c2ccncc2NC(=O)c2ccc(F)c3cc(C4CC4)cnc23)C1` [Example 13, N-{4-[(1R,3S,5S)-3-Amino-5-methylcyclohexyl]pyridin-3-yl}-3-cyclopropyl-5-fluoroquinoline-8-carboxamide] was tested, and the IC50 [1] was no more than 10 nM, the IC50 [2] was no more than 100 nM and the IC50 [3] was no more than 10 nM.

With `C[C@@H]1C[C@H](N)C[C@H](c2ccncc2NC(=O)c2ccc(F)c3cc(-c4cnn(C)c4)cnc23)C1` [Example 64, N-(4-((1R,3S,5S)-3-Amino-5-methylcyclohexyl)pyridin-3-yl)-5-fluoro-3-(1-methyl-1H-pyrazol-4-yl)quinoline-8-carboxamide] the IC50 [1] was no more than 10 nM, the IC50 [2] was 100 to 1000 nM and the IC50 [3] was no more than 10 nM.
